From paper PMC13223435, “Synthesis and Antiproliferative Activity against Melanoma Cells of New Heterocyclic Hybrids Based on Pyridine and Pyrimidine Scaffolds” (Current Medicinal Chemistry, 2025)

What was measured:
[1] = system: human dermal fibroblasts (HDF); assay: WST-1 assay on non-tumor cells (selectivity); format: cell-based
Description: The A375 malignant melanoma cell line (ECACC 88113005, Salisbury, UK) was procured from the European Collection of Authenticated Cell Cultures (ECACC). The primary culture of human dermal fibroblasts (HDF) was derived from skin according to the protocol approved by the Ethical Committee of Pomeranian Medical University in Szczecin (KB-0012/02/18). The detailed protocol of fibroblast isolation, authentication, and cell culture conditions was previously described. Both cell lines were cultivated in a humidified incubator under conditions of 5% CO2 and a temperature of 37°C, using Dulbecco’s modified Eagle’s medium (DMEM) with 4500 mg/L glucose (Sigma-Aldrich Merck Group, St. Louis, MO, USA) enriched with 10% heat-inactivated fetal bovine serum (FBS, EURx, Gdańsk, Poland), 2 mM L-glutamine (Sigma-Aldrich Merck Group, St. Louis, MO, USA), and penicillin-streptomycin solution (Sigma-Aldrich Merck Group, St. Louis, MO, USA). Regular assessments for the presence of mycoplasma were conducted using the MycoAlert® Mycoplasma Detection Kit (Lonza, Rockland, ME, USA).
The evaluation of the antiproliferative activity of the compounds was performed using the Cell Proliferation Reagent WST-1 assay (Roche, Germany). This assay relies on the reduction of tetrazolium salt to formazan, with the final amount of formazan proportional to the number of viable cells. In our study, A375 cells (2×10^3) and HDF (3×10^3) were initially seeded into 96-well plates and cultured in a humidified atmosphere of 5% CO2 at 37°C. 24 hours later, the culture medium was replaced with a medium containing the tested compounds for a 48-hour incubation period at specified final concentrations. […] For control purposes, cells without the tested compounds, which contained only the vehicle (DMSO), were used. Additionally, a blank sample consisting of tested compounds in a medium (without cells) was included. After the 48-hour incubation period, the WST-1 reagent was introduced and allowed to incubate with the cells for 30 minutes. The absorbance was subsequently measured at 450 nm with background correction at 620 nm using a microplate reader (Infinite 200 Pro, Tecan, Männedorf, Switzerland). Cell viability was calculated according to the following formula: [(Atest–Ablank)/ (Acontrol − Ablank)] × 100%. These measurements were conducted in triplicate for at least three independent experiments.
For that purpose, non-tumor HDF cells were used and the concentrations of tested compounds were increased to 200 µM (0.4% DMSO) and 500 µM (1% DMSO). Appropriate controls were prepared for higher concentrations of DMSO.

A375 cells [2] = assay: Live-cell imaging (time-lapse microscopy); format: cell-based; conditions: 48 h
Protocol: For live-cell imaging, A375 cells were seeded into 96-well plates at a density of 2×10^3 cells per well and allowed to grow for 24 h before imaging. Next, the cell culture medium was carefully removed, and new medium containing 16b (at 2 µM and 10 µM) and 29 (at 5 µM and 10 µM) was added and the cell culture plate was placed in the imaging chamber of Agilent BioTek Lionheart FX automated microscope (Agilent Technologies, Inc., Santa Clara, CA, USA) equipped with a Plan Fluorite 20x/0.75 objective (Olympus, Nishi-Shinjuki, Tokyo, Japan), and a FLIR Blackfly BFLY-U3-23S6M camera (Teledyne FLIR, Wilsonville, OR, USA). The temperature in the imaging chamber was set to 37°C and CO2 level to 5%. The bright-field images were acquired every 5 minutes for 48 hours.

A375 cells [3] = assay: Cell cycle analysis (PI staining, Muse); format: cell-based; conditions: 5 h
Protocol: For cell cycle analysis, A375 cells were initially plated in 6-well plates at a density of 1×10^5 cells per well and allowed to culture for 24 hours. Following this incubation period, the culture medium was replaced with fresh medium containing 16b and 29 at final concentrations of 1, 5, and 10 µM, after which the cells were incubated for an additional 5 hours. For control purposes, cells cultured in a medium containing 0.2% DMSO without treatment were utilized. The experimental procedure involved several steps: initially, the cells were rinsed with PBS, and then collected via trypsinization. The resulting cell pellet underwent another PBS wash before being fixed with 70% cold ethanol (Chempur, Piekary Śląskie, Polska) at -20°C for at least 3 hours. Before analysis, the ethanol-fixed cells were centrifuged, washed again with PBS, and then treated with Muse Cell Cycle Reagent (Luminex Corporation, Austin, TX, USA), which includes propidium iodide (PI) and RNAse. This staining process was carried out for 30 minutes at room temperature in the absence of light. The assay relies on PI-based staining of DNA content to differentiate and quantify the percentage of cells in the G0/G1, S, and G2/M phases of the cell cycle. The analysis was performed using the Muse Cell Analyzer (Luminex Corporation, Austin, TX, USA). The obtained findings were derived from a minimum of three independent experiments.

tubulin = molecular target: T1, tubulin (Sus scrofa, UniProt P02550+P02554); assay: Cell free tubulin polymerization assay (fluorescence-based); format: biochemical
T1 construct: purchased Cytoskeleton, Denver, CO, USA
T1 sequence (P02554 whole entry): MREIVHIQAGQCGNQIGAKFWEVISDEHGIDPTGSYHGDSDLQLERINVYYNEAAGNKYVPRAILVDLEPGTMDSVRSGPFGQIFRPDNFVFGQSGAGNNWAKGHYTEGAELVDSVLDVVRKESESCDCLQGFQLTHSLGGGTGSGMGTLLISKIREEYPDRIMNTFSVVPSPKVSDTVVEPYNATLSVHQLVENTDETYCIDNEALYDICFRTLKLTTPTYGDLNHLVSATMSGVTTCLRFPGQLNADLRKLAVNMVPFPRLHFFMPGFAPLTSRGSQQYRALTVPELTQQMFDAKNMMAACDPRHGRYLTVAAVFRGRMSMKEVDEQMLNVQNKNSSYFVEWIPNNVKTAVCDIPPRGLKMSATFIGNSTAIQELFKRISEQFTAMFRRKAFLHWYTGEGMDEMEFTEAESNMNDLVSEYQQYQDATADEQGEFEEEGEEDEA
T1 sequence (P02550 whole entry): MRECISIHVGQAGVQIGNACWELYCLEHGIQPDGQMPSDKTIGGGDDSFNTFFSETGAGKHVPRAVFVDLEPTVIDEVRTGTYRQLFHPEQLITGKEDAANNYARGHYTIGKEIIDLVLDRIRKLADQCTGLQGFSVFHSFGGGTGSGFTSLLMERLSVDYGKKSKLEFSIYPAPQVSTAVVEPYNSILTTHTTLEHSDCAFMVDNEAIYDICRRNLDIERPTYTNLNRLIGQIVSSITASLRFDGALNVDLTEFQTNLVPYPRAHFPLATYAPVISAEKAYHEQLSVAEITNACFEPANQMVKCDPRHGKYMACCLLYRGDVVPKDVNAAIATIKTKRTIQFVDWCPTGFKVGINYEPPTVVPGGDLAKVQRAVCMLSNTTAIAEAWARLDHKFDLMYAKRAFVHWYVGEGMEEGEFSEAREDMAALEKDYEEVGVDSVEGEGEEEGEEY
Protocol: The tubulin polymerization process was evaluated using a tubulin (>99% pure) and fluorescence-based tubulin polymerization kit (Cytoskeleton, Denver, CO, USA). The effects of compounds 16b and 29 (at final concentrations of 1, 10, 50, 100 µM) on tubulin polymerization were evaluated in cell-free conditions. Paclitaxel (PTX) and vinblastine (VBL) (3 µM) were used as references, and DMSO (0.2%) was used as the vehicle control. This assay tracks the process of tubulin polymerization through an increase in fluorescence resulting from the addition of a fluorescence reporter to microtubules as polymerization occurs. After incubating the tested compounds at 37°C for 1 minute, the icy tubulin reaction mixture (2 mg/mL tubulin, 1.0 mM GTP, 15% glycerol in buffer containing 80 mM PIPES, 2.0 mM MgCl2, 0.5 mM EGTA, pH 6.9, and 10 µM fluorescent reporter) was added to the samples, which were then mixed and monitored using a spectrophotometric microplate reader (Infinite 200 Pro, Tecan) at 1-minute intervals for 90 minutes at 37°C (excitation: 360 nm, emission: 450 nm). The software installed on the plate reader was used to compute the maximum slope (Vmax) of the growth phase, measured in RFU/min, as outlined in the manufacturer's instructions. Each polymerization curve's Vmax was then standardized against the control curve's Vmax. The IC50 values were determined using an online tool (AAT Bioquest, Inc., Quest Graph™ IC50 Calculator ((v.1). Retrieved from https://www.aatbio.com/tools/IC50-calculator-v1, accessed on: 2024, May 6).

COc1cc(Cn2cc(-c3cccs3)ccc2=S)cc(OC)c1OC [Compound 16b]
IC50 ([1]; Fibroblast, 48 hours of treatment, normal human dermal fibroblasts): 120 ± 8.42 µM | Selectivity index (SI) ([1]; IC50 normal cells (HDF)/IC50 cancer cell (A375)): 65.08 | time-lapse observation of A375 cells (A375 cells [2]; 2 µM): cells also divided, but less effectively, divisions lasted longer, and finally, the confluence was lower than that in the control well | time-lapse observation of A375 cells (A375 cells [2]; 10 µM): arrested mitosis resulted in mitotic slippage, leading to apoptosis or formation of binucleated cells | percentage of A375 cells in the G2/M phase (A375 cells [3]; 1 µM): 33.79 ± 0.46% | percentage of A375 cells in the G2/M phase (A375 cells [3]; 5 µM): 39.33 ± 5.27% | percentage of A375 cells in the G2/M phase (A375 cells [3]; 10 µM): 44.52 ± 4.00% | effect on tubulin polymerization (tubulin; 100 µM): acted as tubulin polymerization inhibitors | IC50 (tubulin; Vmax normalised to control, read-out: tubulin polymerization inhibition IC50): 37.3 ± 10.9 µM
